The source of these data is patent publication US7381743B2, “Macrocycles for the treatment of cancer” (Leibniz-Institut Fuer Pflanzenbiochemie (IPB), priority 2003, dated 2008).

pIC50: −log10 of the molar value. Like-named read-outs stand apart in the source and are kept apart here.

What all share (type): cell-based
In one experiment the test system is A 549 lung cancer. In words: Proliferation assay (acidic phosphatase), A 549. The following applies: Homo sapiens, A549, 120 h, read-out: Proliferation assay GI50, IC-50, A 549 lung cancer. As for the experimental part:
(§1) Proliferation assay GI50: acidic phosphatase, incubation period 5 days, IC-50 (μM)

Another experiment has as its system L 929 mouse fibroblasts. The experiment in a line: Proliferation assay (acidic phosphatase), L 929. The following applies: L929, 120 h, read-out: Proliferation assay GI50, IC-50, L 929 mouse fibroblasts. On the procedure: as §1
For a further experiment, the system named is MCF7 breast cancer. In words: Proliferation assay (acidic phosphatase), MCF7. The settings on record: Homo sapiens, read-out: Proliferation assay GI50, IC-50, MCF7 breast cancer.
Setting [1] is: acidic phosphatase, incubation period 5 days.

With `C/C1=C/C[C@@H](/C(C)=C/c2csc(C)n2)OC(=O)CSC(C)(C)C(=O)[C@H](C)[C@@H](O)[C@@H](C)CCC1` [MC54690, (7R,8S,9S,13Z,16S)-8-hydroxy-5,5,7,9,13-pentamethyl-16-[(E)-1-methyl-2-(2-methyl-1,3-thiazol-4-yl)vinyl]-1-oxa-4-thiacyclohexadec-13-ene-2,6-dione], the pIC50 was 8.05 in the experiment with A 549 lung cancer; 6.56 in the experiment on L 929 mouse fibroblasts; 7.35 with MCF7 breast cancer (MCF7, 120 h).

With `C/C1=C/C[C@@H](/C(C)=C/c2cccc(C)n2)OC(=O)CSC(C)(C)C(=O)[C@H](C)[C@@H](O)/C(C)=C/CC1` [MC54849, (7R,8R,9E,13Z)-8-Hydroxy-5,5,7,9,13-pentamethyl-16-[(1E)-1-methyl-2-(6-methyl-pyridin-2-yl)-vinyl]-1-oxa-4-thia-cyclohexadec-9,13-dien-2,6-dion], in the experiment with MCF7 breast cancer (MCF7, 96 h), the pIC50 was 6.27.

Turning to `C/C1=C/C[C@@H](/C(C)=C/c2csc(C)n2)OC(=O)CS(=O)(=O)C(C)(C)C(=O)[C@H](C)[C@@H](O)[C@@H](C)CCC1` [MC-C5, (7R,8R,9S,13Z)-8-Hydroxy-5,5,7,9,13-pentamethyl-16-[(IE)-1-methyl-2-(2-methyl-thiazol-4-yl)-vinyl]-4,4-dioxo-1-oxa-4-thia-cyclohexadec-13-en-2,6-dion], in the experiment with MCF7 breast cancer (MCF7, 120 h), the pIC50 was less than 5.00.

`CC(=O)O[C@H]1C(=O)[C@@]2(C)[C@H]([C@H](OC(=O)c3ccccc3)[C@]3(O)C[C@H](OC(=O)[C@H](O)[C@@H](NC(=O)c4ccccc4)c4ccccc4)C(C)=C1C3(C)C)[C@]1(OC(C)=O)CO[C@@H]1C[C@@H]2O` [Taxol, Paclitaxel, reference compound]: the pIC50 with A 549 lung cancer (setting [1]) is 8.22; in the experiment with L 929 mouse fibroblasts (setting [1]), 6.57; with MCF7 breast cancer (MCF7, 120 h, acidic phosphatase, incubation period 5 days), 8.52.
